# Values quoted from earlier work as cited in patent publication US20250082604A1, “COMPOSITIONS CONTAINING A HIGH CONTENT OF PROANTHOCYANIDINS AND METHODS OF PREPARATION AND USE THEREOF” (priority 2022, published 2025).
# Tested on: human HepG2 cells
# Conditions: literature data (dx.doi.org/10.3390/antiox9060471)
row,SMILES,"AOP1 EC50, data from the literature [µg/mL]"
1,Oc1ccc(C=Cc2cc(O)cc(O)c2)cc1 [resveratrol],64.66
2,Cc1c(C)c2c(c(C)c1O)CCC(C)(C(=O)O)O2 (stereo not shown) [Trolox],138.50
3,COc1ccc(O)c(C(C)(C)C)c1 [BHA],31.54
4,Cc1cc(C(C)(C)C)c(O)c(C(C)(C)C)c1 [BHT],34.25
